Key:
U-87MG cells [1] = experiment: Cell migration / wound-healing assay; assay type: cell-based, human; conditions: 20 μM peptide, 24 h, untreated cells 64%
Method: color was read in a spectrophotometer at 680 nm. A standard curve was obtained using D-glucose (0–20 µg) subjected to anthrone in a sulfuric acid treatment, as described above.
Lysosomal vacuolation observed with acridine orange (AO) staining
U-87MG cells were treated with D-Δ(1-18)N-Ter-Antp peptide in serum-free DMEM media for 6 h at 37℃, incubated with acridine orange (1 μg/ml) for 15 min, visualized by fluorescence microscopy (Olympus LX2 - KSP, Tokyo, Japan), and images were captured with a CCD camera. About 200 cells were counted for each […]
Cell migration assay/wound-healing assay
U-87MG cells were seeded in 12-well plates and cultured. When reaching around 90% confluence, a straight scratch was mechanically made with a sterile 10-µl pipette tip. The cells were treated with various concentrations of D-Δ(1-18)N-Ter-Antp peptide in serum-free DMEM media for the indicated time points. The images of the wounds were captured at different time points using a digital camera mounted on a microscope to follow the position of the migrating front at defined times. […]
Summary of the peptide concentrations (µM) required for half-maximal cell death activity (IC50) in various cancer cell lines. […] Cell death was determined by PI staining and FACS analysis. […]

U-87MG cells [2] = experiment: Live-cell imaging (HoloMonitor) of cell division and re-fusion of daughter cells; assay type: cell-based, human; design: dose or concentration left out as unconfirmed; conditions: 24 h incubation
Method: Cells were seeded in a 6-well plates, treated with D-Δ(1-18)N-Ter-Antp peptide for 24 h, and monitored with the Holomonitor live cell imaging system (Holographic Imaging, Lund, Sweden) for 24 h at 37 °C and 5% CO2 or with a microscope (LX2-KSP; Olympus, Shinjuku, Tokyo, Japan), with images captured by a CCD camera.
Figure 8 D-Δ(1-18)N-Ter-Antp peptide induced apoptosis and altered cell division. (A) HeLa cells were treated with D-Δ1-18N-Ter-Antp (5 μM, 24 h) and monitored using a live-imaging microscope (HoloMonitor). The time course of cell division is presented. Division–fusion phase times are represented in relation to D-Δ(1-18)N-Ter-Antp administration time (T = 0). i. The cells are in a pre-division stage. ii. The cell divides into two cells. iii. The cell becomes partially fused. iv. The cells become fully fused into one large cell. v. Finally, they become an apoptotic cell. (B,C) HeLa cells incubated with the peptide (10 μM, 24 h) and then stained with anti-tubulin antibodies, followed by secondary anti-mouse-cy3 antibodies (red) followed by actin staining with Phalloidin-488 (green), nuclei stained with DAPI (blue) and visualized by confocal microscopy. Cells with divided nuclei that were connected or in a re-fused state are circled (C). (D) Schematic illustration of cell division phases of control and D-Δ(1-18)N-Ter-Antp peptide-treated cells.
Figure A1 Vedio S1. […]

## 19-FTKGYGFGL-26- RQIKIWFQNRRMKWKK [D-Δ(1-18)N-Ter-Antp]
U-87MG cells [1]
  Gap closed in wound-healing assay: 17%
U-87MG cells [2]
  Percentage of cells with re-fusion of daughter cells: 60–80%

Source: article PMC9599717, “The Multicellular Effects of VDAC1 N-Terminal-Derived Peptide” (Biomolecules, 2022)
